From PubChem BioAssay (NCI)
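Results reflect a 48-hour exposure of cells in 96-well plates to compound at five concentrations. TGI denotes the concentration required for complete inhibition of growth.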 Where a SMILES comes first, the peptide text is derived from it. The star is where a group is joined. Boc = CC(C)(C)OC(=O)*

Tests used:
Test in all cases: NCI tumour cell line growth inhibition, 48 h
[1] = tested on: A498 renal
[2] = tested on: CCRF-CEM leukemia
[3] = tested on: HCT-116 colon
[4] = tested on: HCT-15 colon
[5] = tested on: K-562 leukemia
[6] = tested on: KM12 colon
[7] = tested on: M14 melanoma
[8] = tested on: MALME-3M melanoma
[9] = tested on: MDA-MB-435
[10] = tested on: NCI-H226 lung
[11] = tested on: NCI-H522 lung
[12] = tested on: OVCAR-3 ovarian
[13] = tested on: OVCAR-4 ovarian
[14] = tested on: OVCAR-8 ovarian
[15] = tested on: RPMI-8226 leukemia
[16] = tested on: SK-MEL-2 melanoma
[17] = tested on: SN12C renal
[18] = tested on: SNB-75 CNS
[19] = tested on: UACC-257 melanoma

| SMILES | TGI [1] | TGI [2] | TGI [3] | TGI [4] | TGI [5] | TGI [6] | TGI [7] | TGI [8] | TGI [9] | TGI [10] | TGI [11] | TGI [12] | TGI [13] | TGI [14] | TGI [15] | TGI [16] | TGI [17] | TGI [18] | TGI [19] |
| --- | --- | --- | --- | --- | --- | --- | --- | --- | --- | --- | --- | --- | --- | --- | --- | --- | --- | --- | --- |
| COc1nc2c(c(=O)n1C)NC(C(O)C(O)CO)C=N2 (stereo not given) | > 10 µM | > 10 µM | > 10 µM | > 10 µM | > 10 µM | > 10 µM | > 10 µM | > 10 µM | > 10 µM | > 10 µM | > 10 µM | > 10 µM | > 10 µM | > 10 µM | > 10 µM | > 10 µM | > 10 µM | > 10 µM | > 10 µM |
| FC(F)(F)C1(C(F)(F)F)C2CCC3(CC(F)(F)C(F)(F)S3)C1C2 (stereo not given) | > 100 µM | 60.9 µM | 42.5 µM | > 100 µM | > 100 µM | > 100 µM | > 100 µM | 95.1 µM | > 100 µM | > 100 µM | > 100 µM | 35.9 µM | > 100 µM | > 100 µM | 58.8 µM | 49.1 µM | > 100 µM | > 100 µM | 74.3 µM |
| Oc1[nH]c2ccccc2c1N=NC(=S)N1CCCC1 | 19.2 µM | 6.78 µM | 21.5 µM | 4.29 µM | > 42.7 µM | > 49.5 µM | 8.44 µM | 9.82 µM | 29.5 µM | 1.88 µM | 38.9 µM | 17 µM | 32.2 µM | 13.6 µM | 9.64 µM | 33.2 µM | 31.9 µM | 14.1 µM | 29.6 µM |
| CC(C)(C)c1cc(C(C)(C)C)c2sc(=S)oc2c1O | 26 µM | > 27 µM | 21 µM | 17.8 µM | 32.9 µM | 18 µM | 32.4 µM | 32.1 µM | 26.8 µM | 34.2 µM | 20.5 µM | 17.5 µM | 26.2 µM | 20.9 µM | 33.7 µM | 24.3 µM | 19.7 µM | 18.5 µM | 27.4 µM |
| N#CC(c1ccccc1)N(CCc1ccccc1)C(=O)Oc1ccccc1 (stereo not given) | > 100 µM | > 100 µM | > 100 µM | > 100 µM | > 100 µM | > 100 µM | > 100 µM | > 100 µM | > 100 µM | > 100 µM | > 100 µM | > 100 µM | > 100 µM | > 100 µM | > 100 µM | > 100 µM | > 100 µM | 74.7 µM | > 100 µM |
| CN(C)/C=N/S(=O)(=O)c1nn2c(C=O)c(-c3ccc([N+](=O)[O-])cc3)nc2s1 | > 100 µM | 19.2 µM | 6.51 µM | > 49.6 µM | > 27.3 µM | 42.3 µM | > 32.4 µM | 8.72 µM | 50.4 µM | > 95.1 µM | 3.86 µM | 18 µM | 39.7 µM | 47.4 µM | > 60.9 µM | 51.3 µM | 22.6 µM | > 86.9 µM | 40.5 µM |
| CCOC(=O)C(CC(C)C)NC(=O)C(Cc1ccccc1)NC(=O)CNC(=O)OC(C)(C)C (stereo not drawn) (Boc-Gly-Phe-Leu-OEt; configuration not given here) | 49.6 µM | 41.3 µM | 32.6 µM | 35.8 µM | 49 µM | 37.5 µM | 40.2 µM | 39.4 µM | 34.4 µM | 41 µM | 34.8 µM | 34.4 µM | 71.1 µM | 46 µM | 45.8 µM | 99.4 µM | 35.4 µM | 38.6 µM | 36.3 µM |
| N#CC(c1ccccc1)(c1ccccc1)[C@@H](c1ccccc1)[C@H](Cc1ccccc1)NS(=O)(=O)c1ccccc1 | > 100 µM | > 100 µM | > 100 µM | > 100 µM | > 100 µM | > 100 µM | > 100 µM | > 100 µM | > 100 µM | – | > 100 µM | > 100 µM | > 100 µM | > 100 µM | > 100 µM | > 100 µM | > 100 µM | > 100 µM | > 100 µM |
| COc1ccc2c(c1)c1c3c(ccc4ncn2c43)N(CCN(C)C)CCN=1 | 2.77 µM | 1.09 µM | 1.52 µM | 1.31 µM | 0.705 µM | 1.7 µM | 2.41 µM | 2.67 µM | 1.76 µM | 2.89 µM | 0.806 µM | 2.4 µM | 1.16 µM | 1.56 µM | 2.48 µM | 2.32 µM | 1.26 µM | 2.26 µM | 3.66 µM |
| CN(NC(=O)c1cccs1)C1=NCCN1 | > 100 µM | > 100 µM | > 100 µM | > 100 µM | > 100 µM | > 100 µM | > 100 µM | > 100 µM | > 100 µM | > 100 µM | > 100 µM | > 100 µM | > 100 µM | > 100 µM | > 100 µM | > 100 µM | – | > 100 µM | > 100 µM |
| COc1cccc(-c2cc(=O)c3cccnc3[nH]2)c1 | > 100 µM | > 100 µM | > 100 µM | > 100 µM | > 100 µM | > 100 µM | > 100 µM | > 100 µM | 0.0855 µM | – | > 100 µM | > 100 µM | > 100 µM | > 100 µM | > 100 µM | > 100 µM | > 100 µM | > 100 µM | > 100 µM |
| NC(N)=NS(=O)(=O)c1ccc(NNc2c3ccccc3nc3c(C(=O)Nc4ccc(S(N)(=O)=O)cc4)cccc23)cc1 | > 100 µM | 88.7 µM | > 100 µM | > 100 µM | 69.9 µM | > 100 µM | > 100 µM | > 100 µM | > 100 µM | > 100 µM | > 100 µM | > 100 µM | > 100 µM | > 100 µM | > 100 µM | 46.9 µM | > 100 µM | > 100 µM | > 100 µM |
| Cc1cc(C)c2c(c1)C(=O)C1(C2)Cc2c(ccc(C)c2C)C1=O (stereo not given) | > 100 µM | > 100 µM | > 100 µM | > 100 µM | > 100 µM | > 100 µM | > 100 µM | > 100 µM | > 100 µM | > 100 µM | > 100 µM | > 100 µM | > 100 µM | > 100 µM | > 100 µM | > 100 µM | > 100 µM | > 100 µM | > 100 µM |
| COc1ccc(-n2c(=O)n(C)c(=O)n2-c2c(C)c(C)c(C)c(C)c2C)cc1 | > 100 µM | > 100 µM | > 100 µM | > 100 µM | > 100 µM | > 100 µM | > 100 µM | > 100 µM | > 100 µM | > 100 µM | > 100 µM | > 100 µM | > 100 µM | > 100 µM | > 100 µM | > 100 µM | > 100 µM | > 100 µM | > 100 µM |
| CCCCCCCCCC(=O)CC(=O)c1c(O)cc(O)cc1O | 71.3 µM | > 75 µM | > 75 µM | 43.8 µM | 36.3 µM | 42.8 µM | 39 µM | 32.1 µM | 39.1 µM | 36.2 µM | 47.3 µM | 53.2 µM | 35.8 µM | 36.9 µM | 37.1 µM | 40.9 µM | 37.3 µM | 69.6 µM | 63.4 µM |
| CC1CC(NN(C)C)C2(C(N)=O)C(N)=NC(=O)C12C#N (stereo not given) | > 100 µM | > 100 µM | > 100 µM | > 100 µM | > 100 µM | > 100 µM | > 100 µM | > 100 µM | > 100 µM | > 100 µM | > 100 µM | – | – | > 100 µM | > 100 µM | > 100 µM | > 100 µM | > 100 µM | > 100 µM |
| CCOC(=O)c1c(N2CCOCC2)[nH]c(=O)c(C(c2ccc(Cl)c([N+](=O)[O-])c2)c2c(O)c(C(=O)OCC)c(N3CCOCC3)[nH]c2=O)c1O | > 100 µM | 40.4 µM | 63.6 µM | > 100 µM | > 100 µM | > 100 µM | 58.5 µM | > 100 µM | > 100 µM | > 100 µM | 55.2 µM | 35.5 µM | > 100 µM | 37 µM | > 100 µM | – | 51 µM | > 100 µM | > 100 µM |
| O=C1CSC(/C=C/c2ccccc2)N1c1ccc(-n2c(-c3ccccc3)nc3ccccc3c2=O)cc1 (stereo not given) | > 100 µM | > 100 µM | > 100 µM | > 100 µM | > 100 µM | > 100 µM | > 100 µM | > 100 µM | > 100 µM | > 100 µM | > 100 µM | > 100 µM | 86.2 µM | > 100 µM | > 100 µM | > 100 µM | > 100 µM | 90 µM | > 100 µM |
| Cc1cc(=O)[nH]c2c3c(ccc12)OC(C)(C)C=C3 | > 87.7 µM | > 100 µM | > 50.1 µM | > 100 µM | > 100 µM | > 100 µM | > 100 µM | > 100 µM | 4.9 µM | > 33.6 µM | 67.4 µM | > 27.7 µM | > 100 µM | > 100 µM | > 100 µM | > 100 µM | > 49.6 µM | 87.9 µM | > 100 µM |
